# In ChEMBL document CHEMBL3272354, “Antifilarial agents. 1,2-Cyclobutanediamines as analogues of diethylcarbamazine. Status of structure-activity relationships among diethylcarbamazine analogues” (1977):
# Tests used:
# Assay type in all cases: functional
# Litomosoides carinii [1] = test: Antifilarial activity against Litomosoides carinii infected in gerbil assessed as microfilaria count at 25, 50, 100 and 200 mg/kg administered on days 0, 1, 2 and 3 respectively measured on day 1 relative to control
# Litomosoides carinii [2] = test: Antifilarial activity against Litomosoides carinii infected in gerbil assessed as microfilaria count at 25, 50, 100 and 200 mg/kg administered on days 0, 1, 2 and 3 respectively measured on day 3 relative to control
# Litomosoides carinii [3] = test: Antifilarial activity against Litomosoides carinii infected in gerbil assessed as microfilaria count at 25, 50, 100 and 200 mg/kg administered on days 0, 1, 2 and 3 respectively measured on day 7 relative to control
# Litomosoides carinii [4] = test: Antifilarial activity against Litomosoides carinii infected in gerbil assessed as microfilaria count at 25, 50, 100 and 200 mg/kg administered on days 0, 1, 2 and 3 respectively measured on day 14 relative to control
# Litomosoides carinii [5] = test: Antifilarial activity against Litomosoides carinii infected in gerbil assessed as microfilaria count at 25, 50, 100 and 200 mg/kg administered on days 0, 1, 2 and 3 respectively measured on day 10 relative to control
# Litomosoides carinii [6] = test: Antifilarial activity against Litomosoides carinii infected in gerbil assessed as microfilaria count at 25, 50, 100 and 200 mg/kg administered on days 0, 1, 2 and 3 respectively measured on day 9 relative to control
# Litomosoides carinii [7] = test: In vivo antifilarial activity against Litomosoides carinii
# Litomosoides carinii [8] = test: Antifilarial activity against Litomosoides carinii infected in natal multimammate rat assessed as reduction of microfilaria relative to control; set-up: scale not given: the % may be the effect or the level left
# Litomosoides carinii [9] = test: Antifilarial activity against Litomosoides carinii infected in gerbil assessed as microfilaria count at 25, 50, 100 and 200 mg/kg administered on days 0, 1, 2 and 3 respectively measured on day 11 relative to control
# Litomosoides carinii [10] = test: Antifilarial activity against Litomosoides carinii infected in cotton rat assessed as reduction of microfilaria relative to control; set-up: scale not given: the % may be the effect or the level left
smiles,measurement,setting,value
CCOC(=O)N[C@H]1CC[C@@H]1N.Cl (relative stereo),Activity,Litomosoides carinii [1],107%
same,Activity,Litomosoides carinii [2],163%
same,Activity,Litomosoides carinii [3],148%
same,Activity,Litomosoides carinii [4],153%
same,Activity,Litomosoides carinii [5],182%
CCOC(=O)N[C@H]1CC[C@@H]1N(C)C.O=C(O)/C=C\C(=O)O (relative stereo),Activity,Litomosoides carinii [1],96%
same,Activity,Litomosoides carinii [2],190%
same,Activity,Litomosoides carinii [3],158%
same,Activity,Litomosoides carinii [6],133%
same,Activity,Litomosoides carinii [4],213%
CCOC(=O)N[C@H]1CC[C@@H]1NC(=O)OCC (relative stereo),Activity,Litomosoides carinii [1],189%
same,Activity,Litomosoides carinii [2],236%
same,Activity,Litomosoides carinii [3],201%
same,Activity,Litomosoides carinii [6],240%
same,Activity,Litomosoides carinii [4],208%
CCN(CC)C(=O)N(C)[C@H]1CC[C@@H]1N(C)C.O=C(O)/C=C\C(=O)O (relative stereo),Activity,Litomosoides carinii [1],185%
same,Activity,Litomosoides carinii [2],99%
same,Activity,Litomosoides carinii [3],174%
same,Activity,Litomosoides carinii [6],159%
same,Activity,Litomosoides carinii [4],100%
CCOC(=O)N[C@H]1CC[C@H]1N(C)C.O=C(O)/C=C\C(=O)O (relative stereo),Activity,Litomosoides carinii [1],127%
same,Activity,Litomosoides carinii [2],59%
same,Activity,Litomosoides carinii [3],169%
same,Activity,Litomosoides carinii [6],154%
same,Activity,Litomosoides carinii [4],199%
CCN(CC)C(=O)N1CCCN(C)CC1,Activity,Litomosoides carinii [7],1%
CCOC(=O)N(C)[C@H]1CC[C@@H]1NC.O=C(O)/C=C\C(=O)O (relative stereo),Activity,Litomosoides carinii [1],150%
same,Activity,Litomosoides carinii [2],160%
same,Activity,Litomosoides carinii [3],150%
same,Activity,Litomosoides carinii [6],95%
same,Activity,Litomosoides carinii [4],165%
CN1CCN(C(=O)C2CCCCC2)CC1 [PEXANTEL],Activity,Litomosoides carinii [8],1%
CCN(CC)C(=O)N1CCN(C)CC1 [DIETHYLCARBAMAZINE],Activity,Litomosoides carinii [1],6%
same,Activity,Litomosoides carinii [2],0.1%
same,Activity,Litomosoides carinii [6],29%
same,Activity,Litomosoides carinii [9],43%
same,Activity,Litomosoides carinii [10],1%
CCOC(=O)N[C@H]1CC[C@@H]1NC.Cl,Activity,Litomosoides carinii [1],101%
same,Activity,Litomosoides carinii [2],113%
same,Activity,Litomosoides carinii [3],122%
same,Activity,Litomosoides carinii [6],99%
same,Activity,Litomosoides carinii [4],151%
CCN(CC)C(=O)N[C@H]1CC[C@@H]1N(C)C.O=C(O)CC(O)(CC(=O)O)C(=O)O (relative stereo),Activity,Litomosoides carinii [1],106%
same,Activity,Litomosoides carinii [2],113%
same,Activity,Litomosoides carinii [3],111%
same,Activity,Litomosoides carinii [6],137%
same,Activity,Litomosoides carinii [4],161%
